# Assay results published in patent publication US10336723B2, “Inhibitors of TrkA kinase” (GVK BIOSCIENCES PRIVATE LIMITED, priority 2015, dated 2019).
# Biological target: T1, human TrkA (Homo sapiens, UniProt P04629)
# T1 construct: expressed in transfected cells; host or cells: AD293 cells
# Assay: TrkA Cell Based Phosphorylation Assay
# Conditions: Recombinant AD293 cells overexpressing human TrkA; TrkA Y490 phosphorylation upon 6 nM NGF stimulation; Phospho-TrkA (Tyr490) sandwich ELISA
# Procedure: Recombinant AD293 cells overexpressing human TrkA were used to determine TrkA Y490 phosphorylation upon NGF stimulation. 25 k cells plated in serum free DMEM medium in a 96 well plate were serum starved for 2 hours at 37° C. in 5% CO2 incubator. Test compounds were added to the plate at a final concentration of 2.5% DMSO and incubated for 20 min at 37° C. 6 nM NGF was added and incubated for 5 min at 37° C. The plate was immediately centrifuged at 2000 rpm for 1 min and media removed. Lysis buffer containing 1% NP-40 Substitute, 20 mM Tris (pH 8.0), 137 mM NaCl final concentrations was added, mixed for one minute and kept on ice for 15 min with shaking every 5 minutes. 100 ul of the cell lysate was added to the PathScan® Phospho-TrkA (Tyr490) Sandwich ELISA plate with precoated wells and ELISA performed according to the manufacturer's instructions for color development. IC50 was generated in Graph Pad Prism software in non linear regression format.
# T1 sequence (P04629 33-796): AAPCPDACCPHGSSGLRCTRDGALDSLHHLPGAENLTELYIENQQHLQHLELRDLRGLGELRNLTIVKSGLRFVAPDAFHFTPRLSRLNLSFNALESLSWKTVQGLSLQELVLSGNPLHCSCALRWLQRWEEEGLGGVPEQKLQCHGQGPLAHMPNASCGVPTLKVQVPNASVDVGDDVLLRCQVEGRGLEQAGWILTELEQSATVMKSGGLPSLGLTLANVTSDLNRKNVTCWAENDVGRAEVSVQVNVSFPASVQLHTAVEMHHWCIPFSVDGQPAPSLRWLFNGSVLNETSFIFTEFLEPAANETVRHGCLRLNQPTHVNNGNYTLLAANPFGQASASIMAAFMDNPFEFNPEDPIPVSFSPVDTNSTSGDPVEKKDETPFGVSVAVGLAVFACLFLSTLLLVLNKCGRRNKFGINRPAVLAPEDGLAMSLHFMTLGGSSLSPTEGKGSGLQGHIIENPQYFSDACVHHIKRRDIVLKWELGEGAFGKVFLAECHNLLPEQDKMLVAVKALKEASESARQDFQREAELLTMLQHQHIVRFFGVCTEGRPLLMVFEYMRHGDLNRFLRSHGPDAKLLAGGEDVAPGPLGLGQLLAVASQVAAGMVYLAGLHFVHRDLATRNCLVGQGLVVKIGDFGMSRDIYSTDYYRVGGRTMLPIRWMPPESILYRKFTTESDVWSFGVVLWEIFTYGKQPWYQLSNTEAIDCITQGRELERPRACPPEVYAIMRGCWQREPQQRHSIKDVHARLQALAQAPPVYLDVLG
row,IC50,Structure (SMILES)
1,< 0.1 µM,"COCCN1C[C@@H](NC(=O)Nc2cc3ccccc3nc2-c2ccccc2)[C@H](c2ccccc2)C1 [Example 2, 1-((3S,4R)-1-(2-methoxyethyl)-4-phenylpyrrolidin-3-yl)-3-(2-phenylquinolin-3-yl)urea]"
2,0.1 to 1 µM,"COCCN1C[C@@H](NC(=O)Nc2cc3c(OC)cccc3nc2-c2ccccc2)[C@H](c2ccccc2)C1 [Example 16, 1-(5-Methoxy-2-phenylquinolin-3-yl)-3-((3S,4R)-1-(2-methoxyethyl)-4-phenylpyrrolidin-3-yl)urea]"
3,> 1 µM,"COCCN1C[C@@H](NC(=O)Nc2cc3ccccc3nc2-c2ccncc2)[C@H](c2ccccc2)C1 [Example 33, 1-((3S,4R)-1-(2-Methoxyethyl)-4-phenylpyrrolidin-3-yl)-3-(2-(pyridin-4-yl)quinolin-3-yl)urea]"
4,< 0.1 µM,"COCCN1C[C@@H](NC(=O)Nc2cc3cc(OC)c(OC)cc3nc2-c2ccccc2)[C@H](c2cccc(F)c2)C1 [Example 74, 1-(6,7-Dimethoxy-2-phenylquinolin-3-yl)-3-((3S,4R)-4-(3-fluorophenyl)-1-(2-methoxyethyl)pyrrolidin-3-yl)urea]"
5,0.1 to 1 µM,"COCCN1C[C@@H](NC(=O)Nc2cccc3oc4ccccc4c23)[C@H](c2ccccc2)C1 [Example 104, 1-(Dibenzo[b,d]furan-1-yl)-3-((3S,4R)-1-(2-methoxyethyl)-4-phenylpyrrolidin-3-yl)urea]"
6,< 0.1 µM,"COCCN1C[C@@H](NC(=O)Nc2cc3c(nc2-c2ccccc2)CCCC3)[C@H](c2ccccc2)C1 [Example 125, 1-((3S,4R)-1-(2-Methoxyethyl)-4-phenylpyrrolidin-3-yl)-3-(2-phenyl-5,6,7,8-tetrahydroquinolin-3-yl)urea]"
7,< 0.1 µM,"COCCN1C[C@@H](NC(=O)Nc2c(-c3ccccc3)ncc3ccccc23)[C@H](c2ccccc2)C1 [Example 149, 1-((3S,4R)-1-(2-Methoxyethyl)-4-phenylpyrrolidin-3-yl)-3-(3-phenylisoquinolin-4-yl)urea]"
8,0.1 to 1 µM,"COCCN1C[C@@H](NC(=O)Nc2c(C(C)(C)C)nc(-c3cnn(C)c3)c3ccccc23)[C@H](c2ccccc2)C1 [Example 165, 1-(3-(tert-Butyl)-1-(1-methyl-1H-pyrazol-4-yl)isoquinolin-4-yl)-3-((3S,4R)-1-(2-methoxyethyl)-4-phenylpyrrolidin-3-yl)urea]"
9,< 0.1 µM,"COCCN1C[C@@H](NC(=O)Nc2c(-c3ccccc3)nc(N3CCOCC3)c3ccccc23)[C@H](c2ccccc2)C1 [Example 172, 1-((3S,4R)-1-(2-Methoxyethyl)-4-phenylpyrrolidin-3-yl)-3-(1-morpholino-3-phenylisoquinolin-4-yl)urea]"
10,0.1 to 1 µM,"COCCN1C[C@@H](NC(=O)Nc2c(-c3ccccc3)nc(C(=O)O)c3cc(F)ccc23)[C@H](c2ccccc2)C1 [Example 190, 7-Fluoro-4-(3-(1-(2-methoxyethyl)-4-phenylpyrrolidin-3-yl)ureido)-3-phenylisoquinoline-1-carboxylic acid]"
